In data set [1] the target is trypsin. As to conditions: cited from earlier work.
The target in another data set is thrombin (Homo sapiens, UniProt P00734). The following applies: cited from earlier work.
The format of data set [2] is physicochemical. As to conditions: for θ222/θ208 / [θ]192 / [θ]208 / [θ]222: Table 8; for [θ]192 / [θ]208 / [θ]222: one or more cyclic pentapeptide modules versus linear peptides; for Relative helicity: [θ]215 relative to SEQ ID NO: 8; for Relative helicity / [θ]190 / [θ]207 / [θ]215 / θ215/θ207: 10 mM phosphate buffer, pH 7.4, 25° C; for % helicity: fH × 100, [θ∞H]222 = −44000, k = 2.6; for [θ]190: molar elipticity at 190 nm; for [θ]207: molar elipticity at 207 nm; for [θ]215: molar elipticity at 215 nm; for θ215/θ207: ratio of elipticities. The method, then: Circular Dichroism (CD) was performed on peptides having SEQ ID NOs: 8 to 14 and 18 to 31, using methods described above. The molar elipticities at 222 nm, 208 nm and 190 nm, ratios of elipticities at 222 nm/208 nm and relative helicity are shown in Tables 6 and 7.
Assuming that mean alpha helix content (fH) is linearly related to elipticity at 222 nm, or in our case 215 nm ([θ]obs215), then the equation for calculating helix content is: fH=([θ]obs215−[θ]C)/([θ]∞215−[θ]C) (1) Luo and Baldwin^22 determined that the random coil ([θ]C) and infinite alpha helix ([θ]∞222) molar elipticities are temperature dependent based on the equations: [θ]C=2220−53T (2a) [θ]∞215=(−44000+250T)(1−k/Np) (2b) where T is temperature in degrees Celsius, Np is the number of peptide units, and k is a finite length correction.
CD was performed on peptides having one [SEQ ID NO: 8] or more than one modular macrocycle [SEQ ID NOs: 46 and 47], as compared with corresponding linear peptides, Ac[KARAD]n—NH2 where n=1 [SEQ ID NO: 14], n=2 [SEQ ID NO: 54] and n=3 [SEQ ID NO: 55]. The molar elipticities at 222 nm, 208 nm and 190 nm, ratios of elipticities at 222 nm/208 nm and percentage helicity are shown in Table 8.
(§1) CD experiments were performed on a Jasco Model J-710 spectropolarimeter which was routinely calibrated with (1S)-(+)-10-camphorsulfonic acid. Temperature control was achieved using a Neslab RTE-111 circulating water bath. Spectra were recorded in a 0.1 cm Jasco cell between 310-185 nm at 50 nm/min with a band width of 1.0 nm, response time of 2 sec, resolution step width of 0.1 nm and sensitivity of 20, 50 or 100 mdeg. Each spectrum represents the average of 5 scans with smoothing to reduce noise. Peptide samples for CD spectroscopy were dissolved in distilled water (˜1 mg/mL). Each stock solution was diluted to a final concentration of 50 μM in 10 mM sodium phosphate buffer (pH7.4), with or without additives (2,2,2-trifluoroethanol (TFE) or guanidine.HCl). Guanidine.HCl denaturation experiments were performed according to Creighton^105.
1D ^1H NMR spectra were then recorded with presaturation and a relaxation delay (d1) of 30 seconds to allow for full relaxation of peptide and DSS^1H signals to facilitate accurate integration of proton signals with S/N>250:1. This method provides reproducible concentrations within ±2%.
CD data in ellipticity was converted to mean peptide ellipticity using the equation: [θ]=θ/(10×C×Np×1) where θ is the ellipticity in millidegrees, C is the peptide molar concentration (M), 1 is the cell path length (cm), and Np is the number of peptide units (ie. pentapeptides […], 10 & 11 Np=5, 12 Np=4.)
Relative helicities were employed to allow scaling of compounds by dividing the [θ]obs215(8)/[θ]obs215(x) for pentapeptides, and [θ]obs215(24)/[θ]obs215(x) for hexapeptides.

Data set [3] has as its system trypsin. Briefly: Proteolytic stability of the helix, trypsin digestion (Example 10). Format: in vitro ADME. The following applies: pH 8.2, room temperature, 1 to 155 minutes. On the procedure:
A standard solution of Ac—KARAD-NH2 and Ac—(cyclo-1,5)-KARAD-NH2 (1 mg/mL) was prepared in 100 mM ammonium carbonate buffer at pH˜8.2. To 100 μL of each solution was added 1 mg/mL of trypsin (1 μL). The digest was conducted at room temperature with 5 μL aliquots taken at 1, 4, 8, 28, 48, 55, 110, 155 minutes. Aliquots were diluted with 5 μL of 3% TFA to stop the reaction. and analyzed by LC-MS using 2.1×150 mm Phenomenex 300 Å C18 5 μm column, with a 3% per minute linear gradient of 0-60% acetonitrile over 20 minutes. The amount of starting material left in each sample was quantified by determination of total ion counts for the molecular ion.
Compound of SEQ ID NO 8 and its acyclic version SEQ ID NO: 14 were incubated with trypsin (pH 8.2), aliquots removed at intervals between 1 and 155 minutes, and analyzed by LCMS. […] Similarly the cyclic compound 8 was not degraded by human serum (1 h, 37° C.). […] This is consistent with other observations that only an extended or linear peptide conformation is recognized, not only by trypsin, but by all proteolytic enzymes^125 Presumably the cycle is too tightly locked into an alpha helical turn to permit significant unwinding to the extended format needed for recognition by trypsin.

Another data set in a line: Serum stability. As to conditions: 1 h, 37° C. Format: in vitro ADME. The method, then: Standard solutions of Ac—KARAD-NH2 and Ac—(cyclo-1,5)-KARAD-NH2 (1 mg/mL) were prepared in water. 200 μL of each peptide was added to human serum 800 μL and incubated at 37° C. Acetonitrile/water 3:1 (300 μL) was added to aliquots (100 μL) of serum at 5, 15, 30, 45 and 60 minutes to precipitate serum proteins, which were removed by centrifugation. The decanted supernatant was analyzed by LC-MS MS with a 2.1×150 mm Phenomenex 300 Å C18 5 um column, using a 3% per minute linear gradient from 0%-60% acetonitrile over 20 minutes. The amount of starting material left in each sample was quantified by determination of total ion counts for the molecular ion.

Data set [4] in a line: Stability against denaturants (guanidine.HCl, temperature) followed by CD. In kind it is physicochemical. As to conditions: 8M guanidinium chloride, 25° C. On the procedure:
Proteolytic stability of the helix. trypsin digestion
The helical macrocycles were conformationally very stable even under protein-denaturing conditions, as illustrated by the low dependence of their CD spectra on temperature between 5-65° C. (FIG. 9a) and on the concentration of guanidine.HCl (FIG. 9b).
as §1

Data set [5] concerns trypsin. Nature of the data set: in vitro. In kind it is in vitro ADME. The following applies: isolated enzyme trypsin, pH 8. The method, then:
Solutions of SEQ ID NO: 46 (25 μM) and linear peptide SEQ ID NO: 54 (26 μM) were incubated with trypsin (1 μg/mL) in 25 mM ammonium carbonate buffer (pH=8) at room temperature. Aliquots were taken at 30 seconds, 1 minute, 5 minutes, 15 minutes, 30 minutes, 1 hour and 2 hours, and diluted with an equivalent volume of 3% trifluoroacetic acid. The resultant solutions were analyzed using a 2×75 mm, 3 μm, Aqua C-18 column (Phenomenex) equilibrated in aqueous formic acid (0.1%). Peptide cleavage products were eluted using a linear gradient of acetonitrile from 0 to 80% in aqueous 0.01% formic acid over 20 minutes at a rate of 300 μL/min. Rate of degradation of either SEQ ID NO: 32 or SEQ ID NO: 43 was quantified by determining extracted ion counts of chromatograms relative to control solutions (containing no enzyme) using a QSTAR PULSAR Electrospray QqTOF Mass Spectrometer and analyzed using BioMultiview (SCIEX Software). Retention time of SEQ ID NO: 46=11.64 minutes. Retention time of linear peptide SEQ ID NO: 54=7.43 minutes. SEQ ID NO: 46 was also found to be highly resistant to proteolytic cleavage by trypsin (97% recovered intact after 2 h), whereas the linear peptide […] (SEQ ID NO: 54) was completely degraded within 30 seconds.

The conditions of data set [6]: phase III; patients at risk of abrupt vessel closure after coronary angioplasty; cited from earlier work.
Data set [7] has as its target T1, MDM2 (Homo sapiens, UniProt Q00987). As to conditions: cited from earlier work.
Data set [8] deals with T1, MDM2. The following applies: read-out: dissociation constant; cited from earlier work.
In the next data set the target is Bcl-xL (Homo sapiens, UniProt Q07817). The following applies: read-out: dissociation constant; cited from earlier work.
A further data set has as its target Bcl-2 (Homo sapiens, UniProt P10415). As to conditions: read-out: dissociation constant; cited from earlier work.

Usually Ki stands for the dissociation constant of the complex between target and ligand, obtained from inhibition or displacement. The fraction remaining is what is left of the initial amount, in per cent. One may read the IC50 as the concentration at which inhibition is half-maximal.

Where a SMILES comes first, the peptide text is derived from it. Bridges are numbered along the chain shown (N, C = ends). [ ]: non-standard residue; d: D form. hArg = N=C(N)NCCCC[C@H](N)C(=O)O; Flu = fluorescein; βAla = NCCC(=O)O; Mpa = O=C(O)CCS

T1 sequence (Q00987 whole entry): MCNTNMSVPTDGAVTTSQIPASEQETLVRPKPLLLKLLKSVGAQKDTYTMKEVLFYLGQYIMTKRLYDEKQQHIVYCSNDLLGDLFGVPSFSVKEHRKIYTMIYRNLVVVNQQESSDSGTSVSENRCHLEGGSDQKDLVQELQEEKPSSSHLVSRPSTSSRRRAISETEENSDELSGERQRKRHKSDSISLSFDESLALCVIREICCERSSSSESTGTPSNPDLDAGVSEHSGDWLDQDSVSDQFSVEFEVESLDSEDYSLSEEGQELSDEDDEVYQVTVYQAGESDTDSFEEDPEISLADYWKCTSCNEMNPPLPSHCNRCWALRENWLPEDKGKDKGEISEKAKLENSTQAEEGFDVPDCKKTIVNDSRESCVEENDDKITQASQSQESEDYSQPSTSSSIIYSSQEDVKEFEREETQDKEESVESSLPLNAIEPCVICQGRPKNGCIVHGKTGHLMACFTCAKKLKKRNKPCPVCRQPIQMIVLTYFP
Bcl-2, sequence (P10415 whole entry, species assumed): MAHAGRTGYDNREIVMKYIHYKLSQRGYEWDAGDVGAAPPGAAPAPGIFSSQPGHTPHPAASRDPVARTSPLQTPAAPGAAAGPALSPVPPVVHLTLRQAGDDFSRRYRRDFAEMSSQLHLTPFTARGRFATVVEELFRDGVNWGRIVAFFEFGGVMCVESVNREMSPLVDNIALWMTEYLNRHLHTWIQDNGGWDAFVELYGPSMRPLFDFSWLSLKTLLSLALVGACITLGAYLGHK
Bcl-xL, sequence (Q07817 whole entry, species assumed): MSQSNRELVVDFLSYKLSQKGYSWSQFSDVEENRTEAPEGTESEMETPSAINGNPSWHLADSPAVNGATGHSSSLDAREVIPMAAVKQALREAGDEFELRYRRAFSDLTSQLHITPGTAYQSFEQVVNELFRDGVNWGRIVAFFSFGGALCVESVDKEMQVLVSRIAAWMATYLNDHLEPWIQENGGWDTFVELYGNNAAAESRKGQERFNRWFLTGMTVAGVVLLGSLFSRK

As to `N=C(N)NCCC[C@@H]1NC(=O)[C@@H]2CCCN2C(=O)[C@@H](NC=O)CNC(=O)/C=C/C(Cc2ccc(O)cc2)NC(=O)[C@@H](Cc2ccccc2)NC(=O)C1=O` (stereo partly shown) [Cyclotheonamide A], the figures for the Ki on trypsin [1] and at thrombin were 23 nM and 180 nM, respectively.
With `CC(=O)N[C@H]1CCCCNC(=O)C[C@@H](C(N)=O)NC(=O)[C@H](C)NC(=O)[C@H](CCCNC(=N)N)NC(=O)[C@H](C)NC1=O` [SEQ ID NO: 8, Ac-(cyclo-1,5)-[KARAD]-NH2] (Ac-KARAD-NH2; lactam 1-5), in [2], the “molar elipticity at 215 nm in helix stabilizing solvent” value is given as “does not increase”, the θ222/θ208 was 0.98, the “[θ]192” value was determined as 52191 degcm^2dmol^−1residue^−1 and the “[θ]208” value was −17039 degcm^2dmol^−1residue^−1. Moreover, in [2], the “[θ]222” value was −15464 degcm^2dmol^−1residue^−1, the Relative helicity was found to be 1.00, the “% helicity” value amounted to 79% and the “[θ]190” value is 38300 deg.cm^2.dmol^−1.residue^−1. Moreover, in [2], the “[θ]207” value is on record as −12211 deg.cm^2.dmol^−1.residue^−1, the “[θ]215” value is recorded as −12757 deg.cm^2.dmol^−1.residue^−1 and the θ215/θ207 was 1.04. In [2] (equation 2b with k˜4, assuming 8 has 100% helicity), this compound returned a percentage helicities of 100%. Moreover, the “helicity on variation of the k factor” value in [2] (k factor from 2.4 to 4.5) is recorded as 56-135%. Besides, the “stability to trypsin (starting material left, LCMS)” value in the data set on trypsin [3] is “remained intact”. In “Serum stability”, the “degradation by human serum” value is given as “not degraded”. For the same compound, the “alpha helicity (molar elipticity at 215 nm) in denaturant” value in data set [4] was “maintains full alpha helicity”.
In the case of `CC(=O)N[C@@H](CCCCN)C(=O)N[C@@H](C)C(=O)N[C@@H](CCCNC(=N)N)C(=O)N[C@@H](C)C(=O)N[C@@H](CC(=O)O)C(N)=O` [SEQ ID NO: 14, Ac-[KARAD]-NH2] (Ac-KARAD-NH2), in data set [2], the θ222/θ208 was found to be 0.12, the “[θ]192” value was −14779 degcm^2dmol^−1residue^−1, the “[θ]208” value was −5758 degcm^2dmol^−1residue^−1 and the “[θ]222” value was −732 degcm^2dmol^−1residue^−1. In data set [2], the Relative helicity is 0.04, the “% helicity” value is 0.8%, the “[θ]190” value was −7372 deg.cm^2.dmol^−1.residue^−1 and the “[θ]207” value is given as −5555 deg.cm^2.dmol^−1.residue^−1. Moreover, in data set [2], the “[θ]215” value is −524 deg.cm^2.dmol^−1.residue^−1 and the θ215/θ207 stood at 0.09. For the same compound, the “stability to trypsin (starting material left, LCMS)” value in the data set on trypsin [3] is given as “completely hydrolyzed within a few minutes”.
Take `CC(=O)N[C@H]1CCCCNC(=O)C[C@@H](C(=O)N[C@H]2CCCCNC(=O)C[C@@H](C(N)=O)NC(=O)[C@H](C)NC(=O)[C@H](CCCNC(=N)N)NC(=O)[C@H](C)NC2=O)NC(=O)[C@H](C)NC(=O)[C@H](CCCNC(=N)N)NC(=O)[C@H](C)NC1=O` [SEQ ID NO: 46] (Ac-KARADKARAD-NH2; lactam 1-5, 6-10): in [2], the θ222/θ208 is given as 1.29, the “[θ]192” value turned out to be 104187 degcm^2dmol^−1residue^−1, the “[θ]208” value is given as −24957 degcm^2dmol^−1residue^−1 and the “[θ]222” value is recorded as −32340 degcm^2dmol^−1residue^−1. The “% helicity” value in [2] is listed as 99%. In the data set with trypsin [5], this compound displayed a share remaining at 2 h, 25 μM of 97%.
With `N=C(N)NCCCC[C@@H]1NC(=O)CCSSC[C@@H](C(N)=O)NC(=O)[C@@H]2CCCN2C(=O)[C@H](Cc2c[nH]c3ccccc23)NC(=O)[C@H](CC(=O)O)NC(=O)CNC1=O` [eptifibatide] ([Mpa][hArg]GDWPC-NH2; disulfide 1-7), the “incidence of cardiac events” value in data set [6] is “reduce the incidence of cardiac events”.
Turning to “Acetyl-Phe-Met-Aib-Pmp-6C1W-Glu-Ac3c-Leu-NH2”, the concentration for half-maximal inhibition (IC50) at MDM2 [7] is 5 nM.
As for Ac—FR(Dpr-Flu)(Ac6c)(6-Br—W)EEL-NH2, on MDM2 [8], the Kd is 2 nM.
As for “Flu-βANLWAAQRYGRELRRMSDKKFVDSFKK-NH2 ({Flu-βAla}-ANLWAAQRYGRELRRMSDKKFVDSFKK-NH2)”, the Kd is 0.6 nM with Bcl-xL and 3 nM with Bcl-2.

Source of the values: US8629241B2, “Alpha helical mimics, their uses and methods for their production” (The University of Queensland, priority 2004, dated 2014).
